Source: patent US5288709A, “Erythromycin derivatives” (priority 1991, dated 1994)
Converted amounts (≈) assume the structure as drawn. Read-outs that look alike come from different tables or passages of the source.

Legend:
[1] = system: Streptococcus pyrogenes EES61; experiment: In-vitro antimicrobial activity primary screen (agar dilution MIC); type: cell-based; settings: BHI agar, 20-24 h, read-out: MIC
Summary of the method: (§1)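 Agar dilution in BHI agar, 12 successive aqueous dilutions; Steers replicator inoculum 1:100, 1:10 for slow-growing Streptococcus; 35-37° C, 20-24 h. Drug-free plates at start and end; same-class reference drug plate. MIC = lowest conc with no growth/slight haze/sparse colonies.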

[2] = system: Staphylococcus aureus 642A; experiment: as above; type: cell-based; settings: BHI agar, 20-24 h, read-out: MIC
Summary of the method: as §1

[3] = system: Klebsiella pneumoniae ATCC 8045; experiment: as above; type: cell-based; settings: ATCC8045; Klebsiella pneumoniae ATCC 8045; BHI agar, 20-24 h; read-out: MIC
Summary of the method: as §1

[4] = system: Streptococcus bovis A5169; experiment: as above; type: cell-based; settings: Streptococcus equinus, BHI agar, 20-24 h, read-out: MIC
Summary of the method: as §1

[5] = system: Micrococcus luteus ATCC 4698; experiment: as above; type: cell-based; settings: ATCC4698, BHI agar, 20-24 h, read-out: MIC
Summary of the method: as §1

[6] = system: Staphylococcus aureus NCTC 10649; experiment: as above; type: cell-based; settings: NCTC10649, BHI agar, 20-24 h, read-out: MIC
Summary of the method: as §1

Pseudomonas cepacia 2961 = experiment: as above; type: cell-based; settings: Burkholderia cepacia, BHI agar, 20-24 h, read-out: MIC
Summary of the method: as §1

[7] = system: Staphylococcus aureus ATCC 6538P; experiment: as above; type: cell-based; settings: Staphylococcus aureus, ATCC6538P, 24 h, BHI agar, 20-24 h
Summary of the method: as §1

Escherichia coli JUHL = experiment: as above; type: cell-based
Summary of the method: as §1

[8] = system: Enterococcus faecium ATCC 8043; experiment: as above; type: cell-based
Summary of the method: as §1

[9] = system: Enterobacter aerogenes ATCC 13048; experiment: as above; type: cell-based; settings: Klebsiella aerogenes, Enterobacter aerogenes ATCC 13048, BHI agar, 20-24 h
Summary of the method: as §1

Escherichia coli SS = experiment: as above; type: cell-based; settings: BHI agar, 20-24 h, read-out: MIC
Summary of the method: as §1

[10] = system: Staphylococcus aureus 45 RAR2; experiment: as above; type: cell-based; settings: Staphylococcus aureus, 45RAR2, 24 h, BHI agar, 20-24 h
Summary of the method: as §1

Escherichia coli H560 = experiment: as above; type: cell-based; settings: Escherichia coli H560; BHI agar, 20-24 h; read-out: MIC
Summary of the method: as §1

[11] = system: Providencia stuartii CMX 640; experiment: as above; type: cell-based; settings: CMX640; Providencia stuartii CMX 640; BHI agar, 20-24 h; read-out: MIC
Summary of the method: as §1

Escherichia coli DC-2 = experiment: as above; type: cell-based; settings: DC2; Escherichia coli DC-2; BHI agar, 20-24 h; read-out: MIC
Summary of the method: as §1

[12] = system: Streptococcus pyrogenes 2548 INDUC; experiment: as above; type: cell-based; settings: BHI agar, 20-24 h, read-out: MIC
Summary of the method: as §1

[13] = system: Streptococcus agalactiae CMX 508; experiment: as above; type: cell-based; settings: CMX508, BHI agar, 20-24 h, read-out: MIC
Summary of the method: as §1

[14] = system: Staphylococcus epidermidis 3519; experiment: as above; type: cell-based; settings: BHI agar, 20-24 h, read-out: MIC
Summary of the method: as §1

[15] = system: Pseudomonas aeruginosa K799/WT; experiment: as above; type: cell-based; settings: Pseudomonas aeruginosa K799/WT; BHI agar, 20-24 h; read-out: MIC
Summary of the method: as §1

[16] = system: Pseudomonas aeruginosa BMH10; experiment: as above; type: cell-based; settings: Pseudomonas aeruginosa, BMH10, 24 h, BHI agar, 20-24 h
Summary of the method: as §1

[17] = system: Pseudomonas aeruginosa K799/61; experiment: as above; type: cell-based; settings: Pseudomonas aeruginosa K799/61; BHI agar, 20-24 h; read-out: MIC
Summary of the method: as §1

Acinetobacter SP CMX 669 = experiment: as above; type: cell-based
Summary of the method: as §1

Staphylococcus aureus 45 = experiment: as above; type: cell-based; settings: BHI agar, 20-24 h, read-out: MIC
Summary of the method: as §1

[18] = system: Micrococcus luteus ATCC 9341; experiment: as above; type: cell-based; settings: ATCC9341, BHI agar, 20-24 h, read-out: MIC
Summary of the method: as §1

[19] = system: Staphylococcus aureus A5177; experiment: as above; type: cell-based
Summary of the method: as §1

[20] = system: Pseudomonas aeruginosa A5007; experiment: as above; type: cell-based; settings: Pseudomonas aeruginosa A5007; BHI agar, 20-24 h; read-out: MIC
Summary of the method: as §1

[21] = system: Staphylococcus aureus CMX 553; experiment: as above; type: cell-based; settings: Staphylococcus aureus, CMX553, 24 h, BHI agar, 20-24 h, read-out: MIC
Summary of the method: (§2)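 MIC is read as the lowest compound level yielding no growth, slight haze or sparse colonies on the inoculum spot, relative to a drug-free plate. Strains were replicator-inoculated (1:100 dilution) onto BHI agar plates holding twelve dilutions and held at 35-37 °C for 20-24 h, with erythromycin A as comparator.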

[22] = Pharmacokinetic evaluation in dogs after a 10 mg/kg dose; settings: dog, plasma; for half-life: t1/2 (biological half life); for bioavailability: % ABS (percent absorbance), from AUC (absolute bioavailability); for Cmax: Cmax (maximum concentration in blood); for Tmax: Tmax (time to achieve maximum concentration in blood)
Description: Selected compounds of the present invention were formulated as solutions in dilute lactobionic acid at a concentration of 10 or 20 mg/ml. Groups of two or three dogs were given a 10 mg macrolide/kg intravenous bolus or oral dose (by gavage). Plasma samples, obtained at selected time points from 15 minutes to 32 hours after dosing, were assayed using reverse phase HPLC with electrochemical detection (parent drug) and microbiological assay (total microbiological activity). Plasma concentration time curves were subjected to multi exponential curve fitting to determine terminal elimination half life values. Area under the curve (AUC) values, calculated by the trapezoidal method, were used to calculate absolute bioavailability.

[23] = system: Staphylococcus aureus (NCTC 10649); experiment: In-vivo acute mouse protection assay; set-up: species or system Staphylococcus aureus; female Swiss albino mice; settings: Staphylococcus aureus, NCTC10649, sc, 168 h; subcutaneous; dosed 1 and 5 h post-infection, observed 7 days; read-out: ED50
Description: (§3) An acute mouse protection test was conducted on ten mice with each of three concentrations of selected compounds of the invention. Each concentration was a four-fold dilution of the previous concentration. The initial concentration will vary with the microorganism with which the mouse is challenged.
(§4) The acute mouse protection test was conducted on female, Swiss albino mice, 18-20 grams in weight. […] To check the potency of the inoculum, a titration of the indicated test organism was carried out in control animals. The titration determines the LD50 for a particular microorganism. The treatment groups of animals were dosed orally, by gavage, or subcutaneously with the test compounds at 1 and 5 hours post-infection and observed for 7 days. The ED50 were calculated using the mortality data collected.

[24] = system: Streptococcus pneumoniae (ATCC 6303); experiment: In-vivo acute mouse protection assay; set-up: species or system Streptococcus pneumoniae; female Swiss albino mice; settings: dosed 1 and 5 h post-infection, observed 7 days
Description: as §3, §4

[25] = system: Staphylococcus aureus CMX 686B; experiment: In-vitro antimicrobial activity primary screen (agar dilution MIC); type: cell-based; settings: CMX686B, BHI agar, 20-24 h, read-out: MIC
Summary of the method: as §2

[26] = system: Staphylococcus aureus CMX 503A; experiment: as above; type: cell-based; settings: Staphylococcus aureus, CMX503A, 24 h, BHI agar, 20-24 h, read-out: MIC
Summary of the method: as §2

[27] = system: Streptococcus pyogenes C-203; experiment: In-vivo acute mouse protection assay; set-up: species or system Streptococcus pyogenes; female Swiss albino mice; settings: dosed 1 and 5 h post-infection, observed 7 days
Description: as §3, §4

[28] = po, oral 10 mg/kg, HPLC (parent drug)
[29] = po, oral 10 mg/kg, microbiological assay

Structure (SMILES)	MIC [1] [µg/mL]	MIC [4] [µg/mL]	MIC [5] [µg/mL]	MIC (Pseudomonas cepacia 2961) [µg/mL]	MIC [7] [µg/mL]	MIC (Escherichia coli SS) [µg/mL]	MIC [10] [µg/mL]	MIC (Escherichia coli H560) [µg/mL]	MIC [11] [µg/mL]	MIC (Escherichia coli DC-2) [µg/mL]	MIC [12] [µg/mL]	MIC [13] [µg/mL]	MIC [14] [µg/mL]	MIC [15] [µg/mL]	MIC [16] [µg/mL]	MIC [17] [µg/mL]	MIC (Staphylococcus aureus 45) [µg/mL]	MIC [18] [µg/mL]	MIC [20] [µg/mL]	MIC [21] [µg/mL]	also measured
CC[C@H]1OC(=O)[C@H](C)[C@@H](O[C@H]2C[C@@](C)(OC)[C@@H](N)[C@H](C)O2)[C@H](C)[C@@H](O[C@@H]2O[C@H](C)C[C@H](N(C)C)[C@H]2O)[C@](C)(O)C[C@@H](C)[C@@H]2O[C@@]1(C)[C@@H](N)[C@H]2C [Example 22, (4"S,9S,11S)-4",11-Diamino-9-deoxo-4",11,12-trideoxy-9,12-epoxyerythromycinA]	0.01 (≈ 0.014 µM)	0.01 (≈ 0.014 µM)	0.05 (≈ 0.0698 µM)	> 100	0.2 (≈ 0.279 µM)	0.1 (≈ 0.14 µM)	0.2 (≈ 0.279 µM)	0.78 (≈ 1.09 µM)	> 100	3.1 (≈ 4.33 µM)	1.56 (≈ 2.18 µM)	0.01 (≈ 0.014 µM)	0.2 (≈ 0.279 µM)	100 (≈ 140 µM)	12.5 (≈ 17.5 µM)	0.39 (≈ 0.545 µM)	0.1 (≈ 0.14 µM)	≤ 0.005	> 100	0.2 (≈ 0.279 µM)	MIC [2]: 0.2 µg/mL (≈ 0.279 µM); MIC [3]: 1.56 µg/mL (≈ 2.18 µM); MIC [6]: 0.2 µg/mL (≈ 0.279 µM); MIC (Escherichia coli JUHL; Escherichia coli JUHL, BHI agar, 20-24 h, read-out: MIC): 1.56 µg/mL (≈ 2.18 µM); MIC ([8]; ATCC8043, Enterococcus faecium ATCC 8043, BHI agar, 20-24 h, read-out: MIC): 0.05 µg/mL (≈ 0.0698 µM); MIC ([9]; ATCC13048, read-out: MIC): 6.2 µg/mL (≈ 8.66 µM); MIC (Acinetobacter SP CMX 669; Acinetobacter, SPCMX669, 24 h): 0.39 µg/mL (≈ 0.545 µM); MIC ([19]; Staphylococcus aureus, A5177, 24 h): 1.56 µg/mL (≈ 2.18 µM); half-life ([22]; iv, IV 10 mg/kg, HPLC (parent drug)): 9.3 h; half-life ([22]; iv, IV 10 mg/kg, microbiological assay): 10.2 h; bioavailability [22, 28]: 43%; bioavailability [22, 29]: 57%; Cmax [22, 28]: 3200 ng/mL; Cmax [22, 29]: 3500 ng/mL; Tmax [22, 28]: 0.5 h; Tmax [22, 29]: 0.6 h; half-life [22, 28]: 11.5 h; half-life [22, 29]: 9.8 h
CC[C@H]1OC(=O)[C@H](C)[C@@H](O[C@H]2C[C@@](C)(OC)[C@@H](N)[C@H](C)O2)[C@H](C)[C@@H](O[C@@H]2O[C@H](C)C[C@H](N(C)C)[C@H]2O)[C@](C)(O)C[C@@H](C)[C@@H]2O[C@@]1(C)[C@@H](O)[C@H]2C [Example 15, (4"S,9S,11S)-4"-Amino-9-deoxo-4",12-dideoxy-9,12-epoxyerythromycin A]	0.02 (≈ 0.0279 µM)	0.01 (≈ 0.0139 µM)	0.05 (≈ 0.0697 µM)	> 100	0.39 (≈ 0.544 µM)	0.1 (≈ 0.139 µM)	0.39 (≈ 0.544 µM)	3.1 (≈ 4.32 µM)	> 100	6.2 (≈ 8.65 µM)	6.2 (≈ 8.65 µM)	0.02 (≈ 0.0279 µM)	0.2 (≈ 0.279 µM)	100 (≈ 139 µM)	50 (≈ 69.7 µM)	0.78 (≈ 1.09 µM)	0.39 (≈ 0.544 µM)	0.01 (≈ 0.0139 µM)	> 100	0.2 (≈ 0.279 µM)	ED50 [23]: 30.1 mg/kg; ED50 ([24]; ATCC6303, 168 h, oral, read-out: ED50): 37.3 mg/kg; ED50 ([24]; ATCC6303, sc, 168 h, subcutaneous): 4 mg/kg; MIC (Escherichia coli JUHL; Escherichia coli, 24 h): 12.5 µg/mL (≈ 17.4 µM); MIC ([8]; Enterococcus faecium, ATCC8043, 24 h): 0.1 µg/mL (≈ 0.139 µM); MIC ([9]; ATCC13048, 24 h): 50 µg/mL (≈ 69.7 µM); MIC (Acinetobacter SP CMX 669; SPCMX669, Acinetobacter SP CMX 669, BHI agar, 20-24 h, read-out: MIC): 6.2 µg/mL (≈ 8.65 µM); MIC ([19]; Staphylococcus aureus A5177, BHI agar, 20-24 h, read-out: MIC): 1.56 µg/mL (≈ 2.18 µM); MIC [25]: 0.39 µg/mL (≈ 0.544 µM); MIC [26]: 0.39 µg/mL (≈ 0.544 µM); ED50 ([27]; C203, 168 h, oral): 47.9 mg/kg; ED50 ([27]; C203, sc, 168 h, subcutaneous): 5 mg/kg
